# In ChEMBL document CHEMBL5113546, “Novel SMARCA Degraders for Treating Cancer” (ACS Med Chem Lett, 2022):
# Target: SWI/SNF-related matrix-associated actin-dependent regulator of chromatin subfamily A member 2 (Homo sapiens, UniProt P51531)
# Experiment: Induction of SMARCA2 degradation in human A549 cells measured after 24 hrs by MSD assay
# Type: cell-based
# SWI/SNF-related matrix-associated actin-dependent regulator of chromatin subfamily A member 2, sequence (P51531 whole entry): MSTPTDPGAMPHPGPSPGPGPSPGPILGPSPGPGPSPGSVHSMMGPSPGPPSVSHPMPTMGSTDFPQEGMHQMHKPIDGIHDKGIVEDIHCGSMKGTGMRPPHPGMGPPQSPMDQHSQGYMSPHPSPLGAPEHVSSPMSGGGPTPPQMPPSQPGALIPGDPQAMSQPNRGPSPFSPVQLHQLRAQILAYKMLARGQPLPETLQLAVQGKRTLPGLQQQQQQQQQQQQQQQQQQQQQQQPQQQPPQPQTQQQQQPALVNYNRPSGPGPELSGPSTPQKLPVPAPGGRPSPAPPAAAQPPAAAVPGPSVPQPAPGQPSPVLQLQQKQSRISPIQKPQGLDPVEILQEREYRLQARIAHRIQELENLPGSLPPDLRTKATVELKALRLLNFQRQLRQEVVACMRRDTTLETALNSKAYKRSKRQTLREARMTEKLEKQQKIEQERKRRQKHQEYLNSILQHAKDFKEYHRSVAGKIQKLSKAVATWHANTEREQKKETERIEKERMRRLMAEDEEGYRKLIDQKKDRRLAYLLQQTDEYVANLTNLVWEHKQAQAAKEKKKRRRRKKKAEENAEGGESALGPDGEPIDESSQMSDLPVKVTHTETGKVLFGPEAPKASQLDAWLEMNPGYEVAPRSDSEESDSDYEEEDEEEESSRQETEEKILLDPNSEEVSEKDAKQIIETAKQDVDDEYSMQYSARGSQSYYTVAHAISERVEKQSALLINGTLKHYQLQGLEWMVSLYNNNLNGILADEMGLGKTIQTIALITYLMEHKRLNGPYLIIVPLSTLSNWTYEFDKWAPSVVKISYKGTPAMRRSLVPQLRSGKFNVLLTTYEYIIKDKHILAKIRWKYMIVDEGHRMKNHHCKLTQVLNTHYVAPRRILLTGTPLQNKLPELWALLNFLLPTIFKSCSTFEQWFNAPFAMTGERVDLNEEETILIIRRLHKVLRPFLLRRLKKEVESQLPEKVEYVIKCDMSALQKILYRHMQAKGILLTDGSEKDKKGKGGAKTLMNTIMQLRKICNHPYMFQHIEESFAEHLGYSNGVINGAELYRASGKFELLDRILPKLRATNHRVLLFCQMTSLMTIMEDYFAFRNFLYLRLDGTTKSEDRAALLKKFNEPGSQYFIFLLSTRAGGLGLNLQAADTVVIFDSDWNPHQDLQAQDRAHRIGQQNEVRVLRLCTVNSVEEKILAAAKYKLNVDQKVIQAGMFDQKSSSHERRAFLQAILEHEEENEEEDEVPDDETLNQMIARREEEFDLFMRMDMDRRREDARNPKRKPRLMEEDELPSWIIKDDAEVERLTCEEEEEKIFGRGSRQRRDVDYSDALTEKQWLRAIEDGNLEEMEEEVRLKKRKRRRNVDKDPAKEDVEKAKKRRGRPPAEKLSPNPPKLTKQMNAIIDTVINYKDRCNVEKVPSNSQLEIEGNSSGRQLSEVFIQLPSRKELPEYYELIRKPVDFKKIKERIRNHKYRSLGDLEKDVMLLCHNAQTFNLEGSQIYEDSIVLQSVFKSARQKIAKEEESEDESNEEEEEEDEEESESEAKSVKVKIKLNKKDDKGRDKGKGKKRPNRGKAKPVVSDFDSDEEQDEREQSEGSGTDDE
row,Structure (SMILES),DC50 [nM]
1,Cc1ncsc1-c1ccc(CNC(=O)[C@@H]2C[C@@H](O)CN2C(=O)[C@@H](NC(=O)[C@H]2CC3(CC[C@H](N4CCC(c5cnc(N6C7CCC6CN(c6cc(-c8ccccc8O)nnc6N)C7)nc5)CC4)CC3)C2)C(C)(C)C)cc1 (stereo partly specified),< 100
2,Cc1ncsc1-c1ccc(CNC(=O)[C@@H]2C[C@@H](O)CN2C(=O)[C@@H](NC(=O)[C@H]2CC3(C2)C[C@H](N2CCN(c4cnc(N5C6CCC5CN(c5cc(-c7ccccc7O)nnc5N)C6)nc4)CC2)C3)C(C)(C)C)cc1 (stereo partly specified),< 100
3,Cc1ncsc1-c1ccc(C2(NC(=O)[C@@H]3C[C@@H](O)CN3C(=O)[C@@H](NC(=O)[C@H]3CC4(C3)C[C@H](N3CCC(c5cnc(N6C7CCC6CN(c6cc(-c8ccccc8O)nnc6N)C7)nc5)CC3)C4)C(C)(C)C)CC2)cc1 (stereo partly specified),< 100
4,Cc1ncsc1-c1ccc(CNC(=O)[C@@H]2C[C@@H](O)CN2C(=O)C(c2cc(OCCCCN3CCC(c4cnc(N5C6CCC5CN(c5cc(-c7ccccc7O)nnc5N)C6)nc4)CC3)no2)C(C)C)cc1 (stereo partly specified),< 100
5,Cc1ncsc1-c1ccc([C@H](C)NC(=O)[C@@H]2C[C@@H](O)CN2C(=O)[C@@H](NC(=O)[C@H]2CC3(C2)C[C@H](N2CCC(c4cnc(N5C6CCC5CN(c5cc(-c7ccccc7O)nnc5N)C6)nc4)CC2)C3)C(C)(C)C)cc1 (stereo partly specified),< 100
6,Cc1ncsc1-c1ccc(CNC(=O)[C@@H]2C[C@@H](O)CN2C(=O)C(c2cc(OCCN3CCC(c4cnc(N5C6CCC5CN(c5cc(-c7ccccc7O)nnc5N)C6)nc4)CC3)no2)C(C)C)cc1 (stereo partly specified),< 100
